The values below are quoted from earlier work in patent US5686420A, “Thyrotropin-releasing hormone analogs and method of use” (Georgetown University, priority 1995, dated 1997).

The conditions of the series: in vivo.

Each structure is given as a SMILES string.

With `NC(=O)[C@@H]1CCCN1C(=O)[C@H](Cc1cnc[nH]1)NC(=O)[C@@H]1CCC(=O)N1` [TRH, L-pyroglutamyl-L-histidyl-L-prolineamide], the plasma half-life was 4 to 5 min.
